# Measured values published in ChEMBL document CHEMBL3885881, “DrugMatrix”.
# Species: Rattus norvegicus
# Experiment: DrugMatrix - Regimen: Daily Repeat
# Assay type: toxicity, organism-based, Sprague-Dawley
# Set-up: regimen Daily Repeat, gender Male, age 6-8 weeks
# Conditions: in vivo, po, route oral GAVAGE, vehicle 100 % SALINE; for ABSOLUTE BASOPHIL / ABSOLUTE EOSINOPHIL / ABSOLUTE LYMPHOCYTE / ABSOLUTE MONOCYTE / ABSOLUTE SEGMENTED NEUTROPHIL / BASOPHIL / EOSINOPHIL / ERYTHROCYTE COUNT / HEMATOCRIT / HEMOGLOBIN / LEUKOCYTE COUNT / LYMPHOCYTE / MEAN CORPUSCULAR HEMOGLOBIN / MEAN CORPUSCULAR HEMOGLOBIN CONCENTRATION / MEAN CORPUSCULAR VOLUME / MONOCYTE / NEUTROPHIL / NUCLEATED RED BLOOD CELLS / PLATELET COUNT: tissue Blood; for ALANINE AMINOTRANSFERASE / ALBUMIN / ALKALINE PHOSPHATASE / ASPARTATE AMINOTRANSFERASE / BLOOD UREA NITROGEN / CARBON DIOXIDE / CHLORIDE / CHOLESTEROL / CREATINE PHOSPHOKINASE / CREATININE / GLUCOSE / LACTATE DEHYDROGENASE / LIPASE / PHOSPHORUS / POTASSIUM / SODIUM / TOTAL BILIRUBIN / TOTAL PROTEIN / URIC ACID: tissue Plasma
# [1] = 0 mg/kg, 72 h, dose level Control, time 3 day
# [2] = 0 mg/kg, 120 h, dose level Control, time 5 day
# [3] = […], 72 h, dose 2.3 mg/Kg, dose level Low, time 3 day
# [4] = […], 120 h, dose 2.3 mg/Kg, dose level Low, time 5 day
compound,measurement,setting,value
CC(CN1c2ccccc2Sc2ccccc21)N(C)C (configuration not stated) [PROMETHAZINE],ABSOLUTE BASOPHIL,[1],0 CELLS/uL
same,ABSOLUTE EOSINOPHIL,[1],65.67 CELLS/uL
same,ABSOLUTE LYMPHOCYTE,[1],17283.5 CELLS/uL
same,ABSOLUTE MONOCYTE,[1],0 CELLS/uL
same,ABSOLUTE SEGMENTED NEUTROPHIL,[1],1284.17 CELLS/uL
same,BASOPHIL,[1],0%
same,EOSINOPHIL,[1],0.33%
same,ERYTHROCYTE COUNT,[1],5.46 x10E6/uL
same,HEMATOCRIT,[1],34.28%
same,HEMOGLOBIN,[1],13.78 G/DL
same,LEUKOCYTE COUNT,[1],18.63 x10E3/uL
same,LYMPHOCYTE,[1],92.67%
same,MEAN CORPUSCULAR HEMOGLOBIN,[1],25.3 pg
same,MEAN CORPUSCULAR HEMOGLOBIN CONCENTRATION,[1],40.22 G/DL
same,MEAN CORPUSCULAR VOLUME,[1],62.87 fL
same,MONOCYTE,[1],0%
same,NEUTROPHIL,[1],7%
same,NUCLEATED RED BLOOD CELLS,[1],0 /100WBC
same,PLATELET COUNT,[1],1244.83 x10E3/uL
same,ALANINE AMINOTRANSFERASE,[1],52.83 u/L
same,ALBUMIN,[1],4 G/DL
same,ALKALINE PHOSPHATASE,[1],327.67 u/L
same,ASPARTATE AMINOTRANSFERASE,[1],78.83 u/L
same,BLOOD UREA NITROGEN,[1],13.83 mg/dL
same,CARBON DIOXIDE,[1],26.67 mmol/L
same,CHLORIDE,[1],99.67 MEQ/L
same,CHOLESTEROL,[1],69 mg/dL
same,CREATINE PHOSPHOKINASE,[1],350.17 u/L
same,CREATININE,[1],0.21 mg/dL
same,GLUCOSE,[1],173.83 mg/dL
same,LACTATE DEHYDROGENASE,[1],168.33 u/L
same,LIPASE,[1],11 u/L
same,PHOSPHORUS,[1],12.7 mg/dL
same,POTASSIUM,[1],6.88 MEQ/L
same,SODIUM,[1],141.68 MEQ/L
same,TOTAL BILIRUBIN,[1],0.22 mg/dL
same,TOTAL PROTEIN,[1],6.02 G/DL
same,URIC ACID,[1],1.9 mg/dL
same,ABSOLUTE BASOPHIL,[2],0 CELLS/uL
same,ABSOLUTE EOSINOPHIL,[2],14.83 CELLS/uL
same,ABSOLUTE LYMPHOCYTE,[2],12880 CELLS/uL
same,ABSOLUTE MONOCYTE,[2],90.67 CELLS/uL
same,ABSOLUTE SEGMENTED NEUTROPHIL,[2],864.5 CELLS/uL
same,BASOPHIL,[2],0%
same,EOSINOPHIL,[2],0.17%
same,ERYTHROCYTE COUNT,[2],5.83 x10E6/uL
same,HEMATOCRIT,[2],35.87%
same,HEMOGLOBIN,[2],14 G/DL
same,LEUKOCYTE COUNT,[2],13.85 x10E3/uL
same,LYMPHOCYTE,[2],92.5%
same,MEAN CORPUSCULAR HEMOGLOBIN,[2],24.03 pg
same,MEAN CORPUSCULAR HEMOGLOBIN CONCENTRATION,[2],39.03 G/DL
same,MEAN CORPUSCULAR VOLUME,[2],61.53 fL
same,MONOCYTE,[2],0.67%
same,NEUTROPHIL,[2],6.67%
same,NUCLEATED RED BLOOD CELLS,[2],0 /100WBC
same,PLATELET COUNT,[2],1041.83 x10E3/uL
same,ALANINE AMINOTRANSFERASE,[2],56 u/L
same,ALBUMIN,[2],4.47 G/DL
same,ALKALINE PHOSPHATASE,[2],319 u/L
same,ASPARTATE AMINOTRANSFERASE,[2],89.17 u/L
same,BLOOD UREA NITROGEN,[2],15.2 mg/dL
same,CARBON DIOXIDE,[2],24 mmol/L
same,CHLORIDE,[2],104.4 MEQ/L
same,CHOLESTEROL,[2],69.5 mg/dL
same,CREATINE PHOSPHOKINASE,[2],295.83 u/L
same,CREATININE,[2],0.21 mg/dL
same,GLUCOSE,[2],124.33 mg/dL
same,LACTATE DEHYDROGENASE,[2],325.5 u/L
same,LIPASE,[2],14.67 u/L
same,PHOSPHORUS,[2],11.45 mg/dL
same,POTASSIUM,[2],6.74 MEQ/L
same,SODIUM,[2],151.4 MEQ/L
same,TOTAL BILIRUBIN,[2],0.23 mg/dL
same,TOTAL PROTEIN,[2],6.45 G/DL
same,URIC ACID,[2],1.18 mg/dL
same,ABSOLUTE BASOPHIL,[3],0 CELLS/uL
same,ABSOLUTE EOSINOPHIL,[3],137 CELLS/uL
same,ABSOLUTE LYMPHOCYTE,[3],14557.33 CELLS/uL
same,ABSOLUTE MONOCYTE,[3],165.33 CELLS/uL
same,ABSOLUTE SEGMENTED NEUTROPHIL,[3],1673.67 CELLS/uL
same,BASOPHIL,[3],0%
same,EOSINOPHIL,[3],1%
same,ERYTHROCYTE COUNT,[3],5.52 x10E6/uL
same,HEMATOCRIT,[3],34.93%
same,HEMOGLOBIN,[3],13.67 G/DL
same,LEUKOCYTE COUNT,[3],16.53 x10E3/uL
same,LYMPHOCYTE,[3],88.33%
same,MEAN CORPUSCULAR HEMOGLOBIN,[3],24.8 pg
same,MEAN CORPUSCULAR HEMOGLOBIN CONCENTRATION,[3],39.13 G/DL
same,MEAN CORPUSCULAR VOLUME,[3],63.3 fL
same,MONOCYTE,[3],1%
same,NEUTROPHIL,[3],9.67%
same,NUCLEATED RED BLOOD CELLS,[3],0 /100WBC
same,PLATELET COUNT,[3],1282.33 x10E3/uL
same,ALANINE AMINOTRANSFERASE,[3],48 u/L
same,ALBUMIN,[3],4.07 G/DL
same,ALKALINE PHOSPHATASE,[3],265 u/L
same,ASPARTATE AMINOTRANSFERASE,[3],76 u/L
same,BLOOD UREA NITROGEN,[3],13.67 mg/dL
same,CARBON DIOXIDE,[3],25.33 mmol/L
same,CHLORIDE,[3],102 MEQ/L
same,CHOLESTEROL,[3],62.67 mg/dL
same,CREATINE PHOSPHOKINASE,[3],306.33 u/L
same,CREATININE,[3],0.2 mg/dL
same,GLUCOSE,[3],164.67 mg/dL
same,LACTATE DEHYDROGENASE,[3],197.33 u/L
same,LIPASE,[3],10.33 u/L
same,PHOSPHORUS,[3],11.33 mg/dL
same,POTASSIUM,[3],6.26 MEQ/L
same,SODIUM,[3],142.7 MEQ/L
same,TOTAL BILIRUBIN,[3],0.2 mg/dL
same,TOTAL PROTEIN,[3],5.87 G/DL
same,URIC ACID,[3],1.63 mg/dL
same,ABSOLUTE BASOPHIL,[4],0 CELLS/uL
same,ABSOLUTE EOSINOPHIL,[4],47.67 CELLS/uL
same,ABSOLUTE LYMPHOCYTE,[4],14175.67 CELLS/uL
same,ABSOLUTE MONOCYTE,[4],210 CELLS/uL
same,ABSOLUTE SEGMENTED NEUTROPHIL,[4],1533.33 CELLS/uL
same,BASOPHIL,[4],0%
same,EOSINOPHIL,[4],0.33%
same,ERYTHROCYTE COUNT,[4],5.54 x10E6/uL
same,HEMATOCRIT,[4],35.6%
same,HEMOGLOBIN,[4],13.8 G/DL
same,LEUKOCYTE COUNT,[4],15.97 x10E3/uL
same,LYMPHOCYTE,[4],89%
same,MEAN CORPUSCULAR HEMOGLOBIN,[4],24.93 pg
same,MEAN CORPUSCULAR HEMOGLOBIN CONCENTRATION,[4],38.77 G/DL
same,MEAN CORPUSCULAR VOLUME,[4],64.27 fL
same,MONOCYTE,[4],1.33%
same,NEUTROPHIL,[4],9.33%
same,NUCLEATED RED BLOOD CELLS,[4],0 /100WBC
same,PLATELET COUNT,[4],1323 x10E3/uL
same,ALANINE AMINOTRANSFERASE,[4],48.67 u/L
same,ALBUMIN,[4],4.2 G/DL
same,ALKALINE PHOSPHATASE,[4],312 u/L
same,ASPARTATE AMINOTRANSFERASE,[4],76.33 u/L
same,BLOOD UREA NITROGEN,[4],12.67 mg/dL
same,CARBON DIOXIDE,[4],22 mmol/L
same,CHLORIDE,[4],103.67 MEQ/L
same,CHOLESTEROL,[4],67.67 mg/dL
same,CREATINE PHOSPHOKINASE,[4],212 u/L
same,CREATININE,[4],0.17 mg/dL
same,GLUCOSE,[4],187 mg/dL
same,LACTATE DEHYDROGENASE,[4],113 u/L
same,LIPASE,[4],9 u/L
same,PHOSPHORUS,[4],11.2 mg/dL
same,POTASSIUM,[4],6.01 MEQ/L
same,SODIUM,[4],144.6 MEQ/L
same,TOTAL BILIRUBIN,[4],0.17 mg/dL
same,TOTAL PROTEIN,[4],6.07 G/DL
same,URIC ACID,[4],2.13 mg/dL
